# Laboratory results as given in article PMC2800825 (Biochemistry, 2009).
# Changes are numbered by the printed parent chain. Where “and” joins values, the source holds several entries; their conditions need not be identical. Equal entries are not always repeated. Where two headings read alike, the source gives them in different places.
# Tests used:
# [1] = target: T1, Thr247Ser mutant E. coli DHOD (Escherichia coli, UniProt P0A7E1, T247S); conditions: pH 8.5, 25 °C
# T1 sequence (P0A7E1 1-336 T247S): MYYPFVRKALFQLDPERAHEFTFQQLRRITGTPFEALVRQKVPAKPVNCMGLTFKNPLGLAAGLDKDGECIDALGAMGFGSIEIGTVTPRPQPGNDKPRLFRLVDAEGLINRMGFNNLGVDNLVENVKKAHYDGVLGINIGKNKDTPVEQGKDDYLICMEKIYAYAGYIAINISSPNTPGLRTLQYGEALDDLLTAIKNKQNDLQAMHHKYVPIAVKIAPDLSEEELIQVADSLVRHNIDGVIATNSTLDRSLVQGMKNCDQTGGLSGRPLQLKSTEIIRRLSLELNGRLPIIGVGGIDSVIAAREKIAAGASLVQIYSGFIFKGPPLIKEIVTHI
# [2] = target: T2, Asn172Ala/Asn246Ala mutant E. coli DHOD (Escherichia coli, UniProt P0A7E1, N172A/N246A); assay: biochemical
# T2 sequence (P0A7E1 1-336 N172A/N246A): T1 sequence (P0A7E1 1-336 T247S) with N172A, N246A, S247T
# [3] = target: T3, Asn172Ala mutant E. coli DHOD (Escherichia coli, UniProt P0A7E1, N172A); assay: biochemical
# T3 sequence (P0A7E1 1-336 N172A): T1 sequence (P0A7E1 1-336 T247S) with N172A, S247T
# wild-type E. coli DHOD [4] = target: T4, wild-type E. coli DHOD (Escherichia coli, UniProt P0A7E1); assay: biochemical
# T4 sequence (P0A7E1 1-336): T1 sequence (P0A7E1 1-336 T247S) with S247T
# [5] = target: T5, Asn246Ala mutant E. coli DHOD (Escherichia coli, UniProt P0A7E1, N246A); conditions: pH 8.5, 25 °C
# T5 sequence (P0A7E1 whole entry N246A): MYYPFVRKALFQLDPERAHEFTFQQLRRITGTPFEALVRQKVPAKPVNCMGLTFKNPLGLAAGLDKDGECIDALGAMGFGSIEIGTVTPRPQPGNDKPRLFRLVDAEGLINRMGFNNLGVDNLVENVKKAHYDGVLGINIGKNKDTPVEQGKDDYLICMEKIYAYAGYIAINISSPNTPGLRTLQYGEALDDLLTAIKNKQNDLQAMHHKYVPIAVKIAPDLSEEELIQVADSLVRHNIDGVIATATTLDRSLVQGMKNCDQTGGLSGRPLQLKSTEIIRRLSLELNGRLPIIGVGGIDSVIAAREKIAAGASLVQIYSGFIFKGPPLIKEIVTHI
# [6] = target: T3, Asn172Ala mutant E. coli DHOD; conditions: pH 8.5, 25 °C
# [7] = target: T6, Thr247Ala mutant E. coli DHOD (Escherichia coli, UniProt P0A7E1, T247A); assay: biochemical
# T6 sequence (P0A7E1 whole entry T247A): as the sequence (P0A7E1 whole entry N246A) above, with A246N, T247A counted along it
# [8] = target: T5, Asn246Ala mutant E. coli DHOD; assay: biochemical; conditions: Kd of OA, Asn246Ala oxidized enzyme, pH 8.5, 25 °C
# [9] = target: T7, Asn111Ala mutant E. coli DHOD (Escherichia coli, UniProt P0A7E1, N111A); conditions: pH 8.5, 25 °C
# T7 sequence (P0A7E1 whole entry N111A): as the sequence (P0A7E1 whole entry N246A) above, with N111A, A246N counted along it
# [10] = target: T8, Asn111Asp mutant E. coli DHOD (Escherichia coli, UniProt P0A7E1, N111D); conditions: pH 8.5, 25 °C
# T8 sequence (P0A7E1 whole entry N111D): as the sequence (P0A7E1 whole entry N246A) above, with N111D, A246N counted along it
# [11] = target: T9, Asn177Ala mutant E. coli DHOD (Escherichia coli, UniProt P0A7E1, N177A); conditions: pH 8.5, 25 °C
# T9 sequence (P0A7E1 whole entry N177A): as the sequence (P0A7E1 whole entry N246A) above, with N177A, A246N counted along it
# [12] = target: T7, Asn111Ala mutant E. coli DHOD; assay: biochemical
# [13] = target: T9, Asn177Ala mutant E. coli DHOD; assay: biochemical
# [14] = target: T6, Thr247Ala mutant E. coli DHOD; conditions: pH 8.5, 25 °C
# [15] = target: T2, Asn172Ala/Asn246Ala mutant E. coli DHOD; conditions: pH 8.5, 25 °C
# [16] = target: T1, Thr247Ser mutant E. coli DHOD; assay: biochemical
# [17] = target: T8, Asn111Asp mutant E. coli DHOD; assay: biochemical
# [18] = target: T6, Thr247Ala mutant E. coli DHOD; conditions: protio-DHO vs 5,5,6-^2H3 DHO, pH 8.5, 4 °C
# [19] = target: T7, Asn111Ala mutant E. coli DHOD; conditions: protio-DHO vs 5,5,6-^2H3 DHO, pH 8.5, 4 °C
# [20] = target: T8, Asn111Asp mutant E. coli DHOD; conditions: protio-DHO vs 5,5,6-^2H3 DHO, pH 8.5, 4 °C
# [21] = target: T5, Asn246Ala mutant E. coli DHOD; conditions: protio-DHO vs 5,5,6-^2H3 DHO, pH 8.5, 4 °C
# [22] = target: T9, Asn177Ala mutant E. coli DHOD; assay: Reductive half-reaction with DHO, anaerobic stopped-flow; format: biochemical
# [23] = target: T1, Thr247Ser mutant E. coli DHOD; assay: as above; format: biochemical
# [24] = target: T7, Asn111Ala mutant E. coli DHOD; assay: as above; format: biochemical
# [25] = target: T3, Asn172Ala mutant E. coli DHOD; assay: as above; format: biochemical
# [26] = target: T2, Asn172Ala/Asn246Ala mutant E. coli DHOD; format: biochemical; conditions: pH 8.5, footnote b printed, text says examined at 25°
# [27] = target: T5, Asn246Ala mutant E. coli DHOD; assay: Reductive half-reaction with DHO, anaerobic stopped-flow; format: biochemical
# wild-type E. coli DHOD [28] = target: T4, wild-type E. coli DHOD; conditions: cited from earlier work
# [29] = target: T6, Thr247Ala mutant E. coli DHOD; assay: Reductive half-reaction with DHO, anaerobic stopped-flow; format: biochemical
# [30] = target: T8, Asn111Asp mutant E. coli DHOD; assay: as above; format: biochemical
smiles,measurement,setting,value
"O=C(O)c1cc(=O)[nH]c(=O)[nH]1 [OA, orotate]",Kd(mutant)/Kd(Wild-Type) for OA,[1],1.1
same,Kd,[2],~50000 µM
same,Kd,[3],220 ± 9 µM
same,Kd,wild-type E. coli DHOD [4],3.4 ± 0.8 µM
same,Kd(mutant)/Kd(Wild-Type) for OA,[5],150 and 152
same,Kd(mutant)/Kd(Wild-Type) for OA,[6],65
same,Kd,[7],39.3 ± 1.6 µM
same,Kd,[8],520 µM and 518 µM
same,Kd(mutant)/Kd(Wild-Type) for OA,[9],14
same,Kd(mutant)/Kd(Wild-Type) for OA,[10],≫ 22000
same,Kd(mutant)/Kd(Wild-Type) for OA,[11],8
same,Kd,[12],47.2 ± 0.2 µM
same,Kd,[13],27.5 ± 1.5 µM
same,Kd(mutant)/Kd(Wild-Type) for OA,[14],12
same,Kd(mutant)/Kd(Wild-Type) for OA,[15],~ 14700
same,Kd,[16],3.8 ± 0.5 µM
same,Kd,[17],> 75000 µM
"[2H]C1([2H])C(=O)NC(=O)NC1([2H])C(=O)O (stereo not drawn) [5,5,6-^2H3 DHO]",KIE ^D(kred/Kd),[18],6.3 ± 0.4
same,KIE ^D(kred/Kd),[19],5.9 ± 0.3
same,KIE ^D(kred/Kd),[20],5.3 ± 0.2
same,KIE ^D(kred/Kd),[21],6.3 ± 0.4
"O=C1C[C@@H](C(=O)O)NC(=O)N1 [DHO, dihydroorotate]",Kd,[22],22 ± 2 µM
same,fold decrease in reduction rate constant vs wild-type,[22]; Asn177Ala,~ 800 fold
same,kred (reduction rate constant),"[22]; Asn177Ala, pH 8.5, 4 °C",0.0586 ± 0.0004 s⁻¹
same,Kd,[23],45 ± 5 µM
same,kred (reduction rate constant),"[23]; Thr247Ser, pH 8.5, 4 °C",58.8 ± 1.1 s⁻¹
same,"observed rate constant of the final phase, independent of DHO concentration","[23]; Thr247Ser, pH 8.5, 4 °C",~ 0.02 s^−1
same,Kd,[24],1040 µM
same,fold decrease in kred vs wild-type,[24]; Asn111Ala,~ 4600 fold
same,fold increase in Kd of DHO vs wild-type,[24]; Asn111Ala,~ 50 fold
same,kred (reduction rate constant),"[24]; Asn111Ala, pH 8.5, 4 °C",0.0100 ± 0.0001 s⁻¹
same,Kd,[25],278 ± 9 µM
same,fold increase in Kd of DHO vs wild-type,[25]; Asn172Ala,~ 14 fold
same,kred (reduction rate constant),"[25]; Asn172Ala, pH 8.5, 4 °C",0.00437 ± 0.0002 s⁻¹ and 0.00437 ± 0.00002 s⁻¹
same,kred (reduction rate constant),[26],~0.002 ^b s^−1
same,Kd,[27],47000 µM
same,fold decrease in reduction rate constant vs wild-type,[27]; Asn246Ala,~ 570 fold
same,fold increase in apparent Kd for DHO vs wild-type,[27]; Asn246Ala,"~ 2,000 fold"
same,kred (reduction rate constant),"[27]; Asn246Ala, pH 8.5, 4 °C",0.081 ± 0.002 s⁻¹
same,kred (reduction rate constant),"wild-type E. coli DHOD [28]; pH 8.5, 4 °C",46 s⁻¹
same,Kd,"wild-type E. coli DHOD [28]; read-out: Apparent Kd,DHO, pH 8.5, 4 °C",20 µM
same,Kd,[29],198 ± 16 µM
same,fold decrease in reduction rate constant vs wild-type,[29]; Thr247Ala,~ 8 fold
same,fold increase in Kd of DHO vs wild-type,[29]; Thr247Ala,~ 10 fold
same,kred (reduction rate constant),"[29]; Thr247Ala, pH 8.5, 4 °C",5.52 ± 0.09 s⁻¹
same,fold slower reduction rate constant than wild-type,[30],~ 450 fold
same,kred (reduction rate constant),"[30]; pH 8.5, 4 °C, estimated",~0.1 s⁻¹
NC(CO)(CO)CO.O=C(O)c1cc(=O)[nH]c(=O)[nH]1 [OA-Tris salt],solubility in water,,at least 400 mM
